Assay results published in publication PMC9611521, “Optimization of Resveratrol Used as a Scaffold to Design Histone Deacetylase (HDAC-1 and HDAC-2) Inhibitors” (Pharmaceuticals, 2022).

Assays:
Assay type in all cases: biochemical
[1] = molecular target: HDAC-2 (Homo sapiens, UniProt Q92769); experiment: Enzymatic HDAC inhibition assay (fluorescence), HDAC-2
Method: (§1) Enzymatic assays to evaluate HDAC inhibition were performed, and the design involved three steps: (a) Preliminary screening to identify the most promising compounds; (b) Evaluation by a panel of HDAC isoforms to investigate selectivity; and (c) Determination of IC50 values. Firstly, compounds (4–7; 15–26) were evaluated at 10 µM against HDAC-1 and HDAC-2 (Table 2).
(§2) The enzymatic assay to evaluate HDAC inhibitory effects for all final compounds against the distinct isoforms was carried out in accordance with the previously described procedures (Lopes et al., 2021). All compounds were initially screened at 10 µM against HDAC-1 and HDAC-2. […] All the compounds were dissolved in DMSO. A serial dilution of the compounds was performed in 100% DMSO with the highest concentration at 1 mM. Each intermediate compound dilution (in 100% DMSO) was diluted 10x in assay buffer to form a 10% DMSO intermediate dilution in HDAC assay buffer. 5 µL of this dilution was added to a 50 µL reaction to bring the final concentration of DMSO to 1% in all the reactions. Three independent experiments were carried out in triplicate for all experiments. The fluorescence intensity was measured at an excitation of 360 nm and emission of 460 nm using a Tecan Infinite M1000 microplate reader, and the percentage of activity was calculated using the formula: % activity = (F − Fb)/(Ft − Fb), where F = the intensity of fluorescence in the presence of the compound. In the absence of the test compound, the fluorescent intensity (Ft) in each dataset was defined as 100% activity, while in the absence of HDAC, the fluorescent intensity (Fb) in each dataset was set to 0% activity.

[2] = molecular target: HDAC-4 (Homo sapiens, UniProt P56524); experiment: Enzymatic HDAC selectivity panel, HDAC-4; conditions: compound at 10 µM
HDAC-4, sequence (P56524 whole entry): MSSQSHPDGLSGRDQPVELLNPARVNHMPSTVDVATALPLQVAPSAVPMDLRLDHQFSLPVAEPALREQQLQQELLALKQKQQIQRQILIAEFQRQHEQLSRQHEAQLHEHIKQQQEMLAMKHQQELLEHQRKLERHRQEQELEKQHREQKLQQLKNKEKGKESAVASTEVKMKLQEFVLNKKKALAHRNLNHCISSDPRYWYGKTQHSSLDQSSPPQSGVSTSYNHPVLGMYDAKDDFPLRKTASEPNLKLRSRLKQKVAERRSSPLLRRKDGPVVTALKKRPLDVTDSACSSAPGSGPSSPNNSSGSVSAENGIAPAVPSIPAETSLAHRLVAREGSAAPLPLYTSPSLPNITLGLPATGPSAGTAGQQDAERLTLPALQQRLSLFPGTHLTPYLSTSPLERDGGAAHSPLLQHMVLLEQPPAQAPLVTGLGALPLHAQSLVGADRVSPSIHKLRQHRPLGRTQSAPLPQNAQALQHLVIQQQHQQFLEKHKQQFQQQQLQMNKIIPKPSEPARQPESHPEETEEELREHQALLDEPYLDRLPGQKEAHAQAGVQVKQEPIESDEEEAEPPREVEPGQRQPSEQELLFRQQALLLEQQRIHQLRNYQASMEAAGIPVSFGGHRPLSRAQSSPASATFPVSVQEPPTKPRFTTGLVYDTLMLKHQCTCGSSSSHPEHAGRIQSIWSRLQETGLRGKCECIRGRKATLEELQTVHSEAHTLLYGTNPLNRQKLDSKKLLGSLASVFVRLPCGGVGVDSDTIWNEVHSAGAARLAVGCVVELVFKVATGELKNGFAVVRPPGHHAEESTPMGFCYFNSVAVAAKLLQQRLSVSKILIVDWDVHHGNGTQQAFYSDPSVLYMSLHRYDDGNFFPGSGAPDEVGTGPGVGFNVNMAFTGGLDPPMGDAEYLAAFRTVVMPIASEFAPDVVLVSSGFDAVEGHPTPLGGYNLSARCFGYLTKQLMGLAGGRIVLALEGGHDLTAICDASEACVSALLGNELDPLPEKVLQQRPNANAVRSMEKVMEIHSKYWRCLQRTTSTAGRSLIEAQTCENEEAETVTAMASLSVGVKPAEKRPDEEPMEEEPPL
Method: as §1
as §2, with “Three independent experiments were carried out in triplicate for all experiments.” left out, “In the absence of the test compound, the fluorescent intensity (Ft) in each dataset was defined as 100% activity, while in the absence of HDAC, the fluorescent intensity (Fb) in each dataset was set to 0% activity.” left out

[3] = molecular target: T1, HDAC-6 (Homo sapiens, UniProt Q9UBN7); experiment: Enzymatic HDAC selectivity panel, HDAC-6; conditions: compound at 10 µM
T1 sequence (Q9UBN7 1-1215): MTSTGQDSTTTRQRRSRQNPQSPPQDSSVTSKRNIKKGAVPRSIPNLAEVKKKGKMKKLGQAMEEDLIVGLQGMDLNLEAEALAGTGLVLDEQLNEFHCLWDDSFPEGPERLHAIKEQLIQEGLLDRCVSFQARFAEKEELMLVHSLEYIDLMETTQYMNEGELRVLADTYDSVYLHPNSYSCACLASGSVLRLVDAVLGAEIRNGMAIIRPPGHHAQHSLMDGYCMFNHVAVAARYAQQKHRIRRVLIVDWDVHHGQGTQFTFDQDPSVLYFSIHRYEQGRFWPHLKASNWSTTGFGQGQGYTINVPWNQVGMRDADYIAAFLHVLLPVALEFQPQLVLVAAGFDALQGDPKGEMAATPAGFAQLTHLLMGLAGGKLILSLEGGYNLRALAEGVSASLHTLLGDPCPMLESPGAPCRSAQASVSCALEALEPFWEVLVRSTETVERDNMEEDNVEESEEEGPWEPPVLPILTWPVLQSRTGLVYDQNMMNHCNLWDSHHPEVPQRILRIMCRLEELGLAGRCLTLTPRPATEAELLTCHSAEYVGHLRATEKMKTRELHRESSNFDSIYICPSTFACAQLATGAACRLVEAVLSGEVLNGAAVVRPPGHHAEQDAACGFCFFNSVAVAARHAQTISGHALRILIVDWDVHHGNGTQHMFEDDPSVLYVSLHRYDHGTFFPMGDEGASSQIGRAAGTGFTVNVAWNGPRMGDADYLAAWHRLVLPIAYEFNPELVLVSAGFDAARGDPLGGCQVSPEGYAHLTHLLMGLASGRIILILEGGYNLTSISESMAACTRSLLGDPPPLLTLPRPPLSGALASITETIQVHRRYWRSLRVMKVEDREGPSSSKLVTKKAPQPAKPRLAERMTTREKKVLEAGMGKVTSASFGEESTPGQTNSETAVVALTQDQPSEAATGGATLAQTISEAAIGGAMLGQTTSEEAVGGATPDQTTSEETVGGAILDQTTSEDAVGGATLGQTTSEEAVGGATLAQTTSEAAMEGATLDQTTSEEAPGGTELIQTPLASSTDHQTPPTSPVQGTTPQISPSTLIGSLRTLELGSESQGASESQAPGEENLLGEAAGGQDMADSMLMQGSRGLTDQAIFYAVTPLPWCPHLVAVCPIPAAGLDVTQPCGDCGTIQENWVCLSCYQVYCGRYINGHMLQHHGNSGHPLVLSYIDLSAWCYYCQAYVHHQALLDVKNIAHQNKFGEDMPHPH
Method: as §1
as §2, with “Three independent experiments were carried out in triplicate for all experiments.” left out, “In the absence of the test compound, the fluorescent intensity (Ft) in each dataset was defined as 100% activity, while in the absence of HDAC, the fluorescent intensity (Fb) in each dataset was set to 0% activity.” left out

[4] = molecular target: T2, HDAC-8 (Homo sapiens, UniProt Q9BY41); experiment: Enzymatic HDAC selectivity panel, HDAC-8; conditions: compound at 10 µM
T2 sequence (Q9BY41 1-377): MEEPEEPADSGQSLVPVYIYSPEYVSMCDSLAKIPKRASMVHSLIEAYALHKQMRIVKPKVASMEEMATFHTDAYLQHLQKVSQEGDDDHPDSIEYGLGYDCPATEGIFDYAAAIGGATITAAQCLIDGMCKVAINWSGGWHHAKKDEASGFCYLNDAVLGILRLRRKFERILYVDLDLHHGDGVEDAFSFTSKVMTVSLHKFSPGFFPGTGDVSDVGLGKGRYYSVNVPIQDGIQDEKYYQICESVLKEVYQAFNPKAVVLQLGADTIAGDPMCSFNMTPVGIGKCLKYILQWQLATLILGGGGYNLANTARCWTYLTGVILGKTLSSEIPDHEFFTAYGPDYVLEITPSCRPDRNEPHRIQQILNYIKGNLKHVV
Method: as §1
as §2, with “Three independent experiments were carried out in triplicate for all experiments.” left out, “In the absence of the test compound, the fluorescent intensity (Ft) in each dataset was defined as 100% activity, while in the absence of HDAC, the fluorescent intensity (Fb) in each dataset was set to 0% activity.” left out

[5] = molecular target: T3, HDAC-11 (Homo sapiens, UniProt Q96DB2); experiment: Enzymatic HDAC selectivity panel, HDAC-11; conditions: compound at 10 µM
T3 sequence (Q96DB2 1-347): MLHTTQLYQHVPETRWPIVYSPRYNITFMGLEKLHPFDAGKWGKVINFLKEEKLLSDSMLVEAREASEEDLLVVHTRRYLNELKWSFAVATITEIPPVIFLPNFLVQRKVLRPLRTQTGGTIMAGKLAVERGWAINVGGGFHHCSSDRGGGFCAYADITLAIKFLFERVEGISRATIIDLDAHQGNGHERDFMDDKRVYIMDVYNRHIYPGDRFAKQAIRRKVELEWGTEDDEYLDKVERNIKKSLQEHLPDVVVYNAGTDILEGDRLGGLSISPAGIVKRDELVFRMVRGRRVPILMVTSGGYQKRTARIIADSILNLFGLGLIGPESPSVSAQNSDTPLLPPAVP
Method: as §1
as §2, with “Three independent experiments were carried out in triplicate for all experiments.” left out, “In the absence of the test compound, the fluorescent intensity (Ft) in each dataset was defined as 100% activity, while in the absence of HDAC, the fluorescent intensity (Fb) in each dataset was set to 0% activity.” left out

HDAC-2, sequence (Q92769 whole entry, canonical isoform): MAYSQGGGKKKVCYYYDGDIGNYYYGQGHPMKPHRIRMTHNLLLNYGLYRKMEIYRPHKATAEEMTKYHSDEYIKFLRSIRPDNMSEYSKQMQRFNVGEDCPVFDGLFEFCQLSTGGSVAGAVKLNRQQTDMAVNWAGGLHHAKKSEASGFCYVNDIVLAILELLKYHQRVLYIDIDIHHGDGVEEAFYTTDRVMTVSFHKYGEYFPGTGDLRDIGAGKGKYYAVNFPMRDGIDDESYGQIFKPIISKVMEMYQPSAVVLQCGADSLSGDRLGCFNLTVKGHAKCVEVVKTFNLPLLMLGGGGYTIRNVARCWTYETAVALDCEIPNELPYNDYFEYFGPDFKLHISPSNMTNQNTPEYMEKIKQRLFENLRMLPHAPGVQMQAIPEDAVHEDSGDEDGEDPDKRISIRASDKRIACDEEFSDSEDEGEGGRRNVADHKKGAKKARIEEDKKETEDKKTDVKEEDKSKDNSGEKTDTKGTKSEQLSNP

inhibition at 10 µM ([1]; compound at 10 µM): 93%
HDAC-2 inhibition ([1]; compound at 10 µM, 10 µM): 92 ± 0.8%
IC50 ([1]; substrate 10 µM): 370 nM
inhibition at 10 µM [2]: 5 ± 0.4%
inhibition at 10 µM [3]: 3 ± 0.4%
inhibition at 10 µM [4]: 13 ± 1%
inhibition at 10 µM [5]: 15 ± 0.6%
Structure (SMILES): Nc1ccc(CCc2ccc(C(=O)Nc3ccccc3N)cc2)cc1 [Compound (5)]
